US7449570B2, “Use of nucleoside compounds for nonsense suppression and the treatment of genetic diseases” (PTC Therapeutics, Inc., priority 2002, dated 2008)

system: lysosomal tripeptidyl-peptidase 1 (TPP-I); assay: not given; settings: patient-derived LINCL cell line, compound heterozygous for Arg208Stop and a different rare nonsense mutation; Sleat et al. 2001; cited from earlier work

For gentamicin, which “normal levels of TPP-I maximally restored” value is on record?
The value was “approximately 7%”.

system: luciferase reporter construct containing a UGA premature termination codon; assay: cell-based luciferase reporter assay (nonsense suppression); parameters: key: Compounds which were found to have either or both very high potency and very high efficacy of protein synthesis are classified as “***”; Compounds which were found to have significant potency and/or efficacy of protein synthesis were classified as “**”; compounds which were found to have potency and/or efficacy of protein synthesis were classified as “*”; settings: UGA premature termination codon luciferase reporter stably transfected in 293T Human Embryonic Kidney cells; qualitative potency/efficacy of protein synthesis; gentamicin internal standard
Protocol: Activity measurements in Table 1 were performed in a cell-based luciferase reporter assay (as described in Section 4.2) comprising a luciferase reporter construct containing a UGA premature termination codon that was stably transfected in 293T Human Embryonic Kidney cells. Gentamicin, a small molecule known to allow readthrough of premature termination codons, was used as an internal standard. Activity measurements are based on the qualitative ratio between the minimum concentration of compound required to produce a given protein in a cell versus the amount of protein produced by the cell at that concentration.
The test compounds identified in the nonsense suppression assay (for convenience referred to herein as a compound of the invention) can be tested for biological activity using host cells containing or engineered to contain the target RNA element coupled to a functional readout system. For example, the lead compound can be tested in a host cell engineered to contain the RNA with the premature translation termination codon controlling the expression of a reporter gene. In this example, the lead compounds are assayed in the presence or absence of the RNA with the premature translation termination codon. Compounds that modulate premature translation termination and/or nonsense-mediated mRNA decay in vivo will result in increased expression of the full-length gene, i.e., past the premature termination codon. Alternatively, a phenotypic or physiological readout can be used to assess activity of the target RNA with the premature translation termination codon in the presence and absence of the lead compound. Both the in vitro and in vivo nonsense suppression assays used herein and as described in International Patent Publication WO 01/44516, which is incorporated by reference herein in its entirety, can be used to identify lead compounds and can also be used to determine an EC50 for the lead compounds.
A stable cell line harboring the UGA nonsense-containing luciferase gene is treated with a test compound. Cells are grown in standard medium supplemented with 1% penicillin-streptomycin (P/S) and 10% fetal bovine serum (FBS) to 70% confluency and split 1:1 the day before treatment. The next day, cells are trypsinized and 40,000 cells are added to each well of a 96-well tissue culture dish. Serial dilutions of each compound are prepared to generate a six-point dose response curve spanning 2 logs (30 μM to 0.3 μM). The final concentration of the DMSO solvent remains constant at 1% in each well. Cells treated with 1% DMSO serve as the background standard, and cells treated with gentamicin serve as a positive control.

For `COC(=O)c1c(Cl)ncnc1N[C@@H]1O[C@H](CO)[C@@H](O)[C@H]1O` [Compound 26, Methyl 6-chloro-4-(β-D-ribofuranosylamino)pyrimidine-5-carboxylate], which Activity is on record?
The Activity was 0.

With `Nc1ncnc(N[C@H]2O[C@H](CO)[C@@H](O)[C@H]2O)c1[N+](=O)[O-]` [Compound 22, 6-amino-5-nitro-4-(α-D-ribofuranosylamino)-pyrimidine] as the compound, how does the Activity read?
The Activity was “***”.

With `Nc1ncnc(N[C@@H]2C[C@H](CO)[C@@H](O)[C@H]2O)c1[N+](=O)[O-]` [Compound 6, (1R,2S,3R,5R)-3-(6-Amino-5-nitro-pyrimidin-4-ylamino)-5-hydroxymethyl-cyclopentane-1,2-diol] as the compound, how does the Activity read?
The Activity was 0.

With `Nc1ncnc(N[C@H]2C[C@@H](CO)[C@H](O)[C@@H]2O)c1[N+](=O)[O-]` [Compound 7, (1S,2R,3S,5S)-3-(6-Amino-5-nitro-pyrimidin-4-ylamino)-5-hydroxymethyl-cyclopentane-1,2-diol] as the compound, how does the Activity read?
Its Activity is 0.

Which Activity does the source give for `COC(=O)c1c(N)ncnc1N[C@H]1O[C@H](CO)[C@@H](O)[C@H]1O` [Compound 27, Methyl 6-amino-4-(α-D-ribofuranosylamino)pyrimidine-5-carboxylate] here?
The Activity was “*”.

With `Nc1ncnc(N[C@@H]2O[C@H](COC(=O)c3ccccc3)[C@@H](OC(=O)c3ccccc3)[C@H]2OC(=O)c2ccccc2)c1[N+](=O)[O-]` [Compound 24, 6-Amino-5-nitro-4-[(2,3,5-tri-O-benzoyl-β-D-ribofuranosyl)amino]pyrimidine] as the compound, how does the Activity read?
Its Activity is “**”.
